# Measured values taken from paper PMC8900464 (Journal of medicinal chemistry, 2022).
# Entries after “also recorded” stand apart in the source; their conditions may differ.
# Experiments:
# T-AKT, P-AKT, P-PRAS40 = assay: Western blotting analysis of xenograft tumor samples; type: in vivo, mice; conditions: PC3 xenograft, 75 mg/kg once daily IP, end of study
# T-AKT [1] = assay: T-AKT degradation in PC3 cells; type: cell-based, human
# BT474 cells = assay: Cell colony formation assay; type: cell-based; conditions: 14 days
# T-AKT [2] = assay: Competition; type: cell-based, human; conditions: PC3 cells, then compound 24 h
# [3] = system: P-AKT (S473), P-PRAS40 (T246), P-S6 (S240/244); assay: Immunoblotting of P-AKT and downstream signaling in BT474 cells; type: cell-based; conditions: 24 h
# P-PRAS40, P-S6 = assay: Downstream signaling in PC3 cells; conditions: for downstream signaling inhibition after washout: 1 μM for 24 h, then washout
# PC-3 xenografts [4] = type: in vivo; conditions: PC3 xenograft mice, 75 mg/kg once daily IP, 22 days
# total AKT (T-AKT) = assay: Immunoblotting of total AKT in BT474 cells; type: cell-based; conditions: BT474 cells, 1 μM, 24 h, western blot
# PC-3 xenografts [5] = conditions: PC3 xenograft, 75 mg/kg once daily IP; cited from earlier work
# PC3 cells = assay: Cell proliferation assay; type: cell-based, human; conditions: 5 days
# MDA-MB-468 cells = assay: Cell proliferation assay; type: cell-based; conditions: 5 days
# [6] = BT474 cells, 1 μM, western blot
molecule,measurement,setting,value
"Cc1ncsc1-c1ccc(CNC(=O)[C@@H]2C[C@@H](O)CN2C(=O)[C@@H](NC(=O)CCCCCCCCCCC(=O)N2CCN(CC[C@H](NC(=O)C3(N)CCN(c4ncnc5[nH]ccc45)CC3)c3ccc(Cl)cc3)CC2)C(C)(C)C)cc1 [Compound 20, 4-Amino-N-((S)-1-(4-chlorophenyl)-3-(4-(12-(((S)-1-((2S,4R)-4-hydroxy-2-((4-(4-methylthiazol-5-yl)benzyl)carbamoyl)pyrrolidin-1-yl)-3,3-dimethyl-1-oxobutan-2-yl)amino)-12-oxododecanoyl)-piperazin-1-yl)propyl)-1-(7H-pyrrolo[2,3-d]pyrimidin-4-yl)-piperidine-4-carboxamide]",T-AKT and P-AKT in tumor samples,"T-AKT, P-AKT, P-PRAS40",substantially degraded T-AKT and P-AKT
same,downstream signaling (PRAS40 phosphorylation) in tumor samples,"T-AKT, P-AKT, P-PRAS40",effectively inhibited the downstream signaling
same,time to complete depletion of T-AKT,T-AKT [1]; 1 μM,≤ 8 h
same,T-AKT level after washout,"T-AKT [1]; 1 μM for 24 h, then washout, 48 h post-treatment",partially recovered
same,duration of sustained AKT degradation post treatment,T-AKT [1]; washout experiments,1 to 2 days
same,inhibition of colony formation,BT474 cells,highly effective in inhibiting colony formation; also recorded: effectively inhibited colony formation
same,AKT degradation after pretreatment with MLN4924 or MG-132,T-AKT [2]; 2 h pretreatment,significantly diminished the AKT degradation effect
same,AKT degradation after pretreatment with excess AZD5363,T-AKT [2]; AZD5363 (1 μM) 2 h,rescued the AKT protein level
same,AKT degradation after pretreatment with excess VHL ligand VHL-2,T-AKT [2]; VHL-2 (1 μM) 2 h,restored the AKT protein level effectively
same,downstream signaling inhibition,"[3]; BT474 cells, 1, 5 and 10 μM, P-PRAS40 and P-S6, western blot",slightly enhanced downstream signaling inhibition compared to 19
same,downstream signaling inhibition after washout,"P-PRAS40, P-S6; 48 h post-treatment",partially recovered
same,tolerability,PC-3 xenografts [4],well tolerated
"4-Amino-N-[(1S)-1-(4-chlorophenyl)-3-hydroxypropyl]-1-(7H-pyrrolo[2,3-d]pyrimidin-4-yl)piperidine-4-carboxamide [AZD5363, reference compound]",T-AKT protein level,total AKT (T-AKT),downregulated the T-AKT protein level
same,AKT protein level,"T-AKT [1]; 1 μM, 24 h",did not significantly reduce the AKT protein level
same,tumor growth inhibition,PC-3 xenografts [5],75%
same,GI50,PC3 cells,6.5 ± 2.9 µM
same,downstream signaling (PRAS40 and S6 phosphorylation),[3]; [6],effectively inhibited the phosphorylation of downstream PRAS40 and ribosomal protein S6
same,phosphorylated AKT level,[3]; [6],paradoxically upregulated the phosphorylated AKT level
same,downstream signaling inhibition after washout,"P-PRAS40, P-S6; 24 h post-treatment",near fully recovered
same,PRAS40 and S6 phosphorylation,"P-PRAS40, P-S6; 1 μM, 24 h",effectively inhibited PRAS40 and S6 phosphorylation
same,GI50,MDA-MB-468 cells,3.8 ± 1.6 µM
